Holding throughout (type): cell-based, human
One experiment has as its system IGR-Heu tumor cells. As to the kind of experiment: Proteasome inhibition: CTL recognition (TNFβ release) of inhibitor-treated IGR-Heu tumor cells. The settings on record: 10 μM, FIG. 4A. The method, then: FIG. 4: Processing of the preprocalcitonin16-25 peptide is proteasome- and TAP-independent. A. IGR-Heu target cells were incubated for 2 h at 37° C. in the presence or absence of the proteasome-specific inhibitor epoxomicin, and then Heu161 cells were added. The autologous Heu127 clone, recognizing on IGR-Heu a proteasome-dependent mutated α-actinin-4 peptide, was included as a positive control. TNFβ released in medium after 24 h of culture was measured as above. B. 293-EBNA cells were cotransfected with pCEP4 containing either cDNA 150 (upper panel) or the mutated α-actinin-4 cDNA (lower panel), with pcDNA3.1 containing an HLA-A*0201 construct, and with various amounts of vector pBJi-neo containing IPC47 cDNA. CTL clones Heu161 (upper panel) or Heu127 (lower panel) were then added. Controls included 293-EBNA cells transfected with HLA-A2 or pBJi-neo-IPC47 alone, and incubation of transfectants with either preprocalcitonin or α-actinin-4 peptides. Data shown are representative of four independent experiments.
(§1) TNFβ was detected by measuring the cytotoxicity of the culture medium on TNF-sensitive WEHI-164c13 cells with a MTT colorimetric assay (ESPEVIK & NISSEN-MEYER, J Immunol Methods, 95, 99-105, 1986).
For proteasomes and SP inhibition, 10^6 tumor cells were resuspended in 300 μl of media in the presence or absence of specific inhibitors. […]

In experiment [1] the test system is CTL clone Heu161. Nature of the experiment: Lytic activity of CTL clone on peptide-pulsed 51Cr-labeled Heu-EBV-B cells. Particulars: E/T 10:1, 4 h chromium release, FIG. 3B. The method, then:
(§2) FIG. 3: Identification of the antigenic peptide recognized by CTL clone Heu161. A. CTL stimulation with purified synthetic peptides. Peptides were loaded on allogeneic HLA-A2^+ MZ2-MEL.3.1 melanoma cells for 60 min at room temperature before addition of CTL clone Heu161. TNF release was measured 16 h later. Empty circles represent the results obtained with peptide SEQ ID NO: 1, full circles represent the results obtained with peptide SEQ ID NO: 2, empty squares represent the results obtained with peptide SEQ ID NO: 24, full squares represent the results obtained with peptide SEQ ID NO: 25 and empty diamonds represent the results obtained with peptide SEQ ID NO: 26. B. Lytic activity of CTL clone on peptide-pulsed cells. ^51Cr-labeled Heu-EBV-B cells were incubated over 60 min with the indicated concentrations of peptides before addition of CTL clone Heu161 at an E/T cell ratio of 10:1. Chromium release was measured after 4 h. Empty circles represent the results obtained with peptide SEQ ID NO: 1, full circles represent the results obtained with peptide SEQ ID NO: 2
Cytotoxic activity was measured by a conventional 4-h ^51Cr-release assay using triplicate cultures in round-bottomed 96-well plates. Percent specific cytotoxicity was calculated conventionally; SD were <5%. […]

For experiment [2], the system named is CTL clone Heu161. Nature of the experiment: CTL stimulation (TNF release) by synthetic peptides loaded on HLA-A2+ MZ2-MEL.3.1 melanoma cells. The method, then:
as §2, §1
We then prepared a series of calcitonin cDNA fragments truncated at their 5′ end and engineered to contain an initiation codon and a Kozak consensus sequence. […] Further trimming narrowed down the peptide-encoding region to residues 9-38 (FIG. 2B). Among a set of overlapping peptides covering this region, only two were recognized by CTL clone Heu161: VLLQAGSLHA (SEQ ID NO: 1) and LVLLQAGSLHA (SEQ ID NO: 2), which are identical, but with an additional leucine in the latter peptide. […] In a lysis assay, the decamer was slightly more efficient than the 11-mer peptide by a factor of about three (FIG. 3B). We concluded that the optimal antigenic peptide recognized by CTL clone Heu161 was VLLQAGSLHA (SEQ ID NO: 1) or preprocalcitonin16-25. This peptide corresponds exactly to the C-terminal part of the preprocalcitonin signal peptide (LE MOULLEC et al., FEBS Lett, 167, 93-7, 1984).

On to `CC[C@H](C)[C@H](NC(=O)[C@H]([C@@H](C)CC)N(C)C(C)=O)C(=O)N[C@H](C(=O)N[C@@H](CC(C)C)C(=O)[C@@]1(C)CO1)[C@@H](C)O` [epoxomicin], for which the “effect on recognition by anti-preprocalcitonin CTL clone Heu161” value in the experiment with IGR-Heu tumor cells was “no effect”.
As to “VLLQAGSLHA [SEQ ID NO: 1, optimal antigenic peptide recognized by CTL clone Heu161, C-terminal part of the preprocalcitonin signal peptide]”, the “efficiency in lysis assay, decamer relative to 11-mer (factor)” value with CTL clone Heu161 [1] is on record as “about three”. Further, the EC50 in the experiment on CTL clone Heu161 [2] (HLA-A2+ melanoma cells loaded 60 min, TNF release after 16 h, FIG. 3A, read-out: peptide concentration giving half-maximal effect (sensitization to recognition by CTL Heu161)) is about 10 nM. For the same compound, in the experiment on CTL clone Heu161 [2] (overlapping synthetic peptides of preprocalcitonin), the “recognition of peptide by CTL clone Heu161” value was “recognized”.

The values above are taken from patent publication US8492342B2, “Preprocalcitonin antigen T epitopes” (Institut Gustave Roussy, priority 2007, dated 2013).
